Measured values taken from ChEMBL document CHEMBL5038645, “Discovery of Mycobacterium tuberculosis Rv3364c-Derived Small Molecules as Potential Therapeutic Agents to Target SNX9 for Sepsis” (J Med Chem, 2022).
≈ marks a conversion by molar mass, not a printed value. Calls of active or inactive are those of the source. No cut-off for these calls is given here.

How the values were obtained:
[1] = Antiinflammatory activity in […] cells assessed as reduction in LPS-induced TNF-alpha release at 10 uM pre incubated for 1 hr followed by LPS stimulation and measured after 30 mins by ELISA; type: functional
[2] = Antiinflammatory activity in […] cells assessed as reduction in LPS-induced NOX release at 10 uM pre incubated for 1 hr followed by LPS stimulation and measured after 30 mins by ELISA; type: functional
[3] = Antiinflammatory activity in […] cells assessed as reduction in LPS-induced IL-6 release at 10 uM pre incubated for 1 hr followed by LPS stimulation and measured after 30 mins by ELISA; type: functional
Escherichia coli = experiment: Antibacterial activity against Escherichia coli ATCC 12701 assessed as bacterial clearance incubated for 6 to 24 hrs by microbroth dilution method; type: functional; settings: time 6-24 hrs
Staphylococcus aureus = experiment: Antibacterial activity against Staphylococcus aureus ATCC 6538 assessed as bacterial clearance incubated for 6 to 24 hrs by microbroth dilution method; type: functional; settings: time 6-24 hrs
Pseudomonas aeruginosa = experiment: Antibacterial activity against Pseudomonas aeruginosa ATCC 10145 assessed as bacterial clearance incubated for 6 to 24 hrs by microbroth dilution method; type: functional; settings: time 6-24 hrs
[4] = Tmax in C57BL/6 mouse at 1 mg/kg, ip incubation up to 6 hrs by LC-MS/MS analysis; type: ADME, organism-based; settings: in vivo
[5] = Cmax in C57BL/6 mouse at 1 mg/kg, ip incubation up to 6 hrs by LC-MS/MS analysis; type: ADME, organism-based; design: route intraperitoneal, dose 1 mg/kg, time <=6; settings: in vivo
[6] = AUC (0 to last) in C57BL/6 mouse at 1 mg/kg, ip incubation up to 6 hrs by LC-MS/MS analysis; type: ADME, organism-based; design: route intraperitoneal, dose 1 mg/kg, time <=6; settings: in vivo
[7] = Half life in C57BL/6 mouse at 1 mg/kg, ip incubation up to 6 hrs by LC-MS/MS analysis; type: ADME, organism-based; settings: in vivo
[8] = Stability in human liver microsomes assessed as parent compound remaining at 10 uM preincubated for 5 mins followed by NADPH addition measured after 30 mins by LC-MS/MS analysis relative to control; type: ADME, Microsome; settings: time 35 min, read-out: Stability
[9] = Stability in human plasma assessed as parent compound remaining at 10 uM incubation upto 120 mins by LC-MS/MS analysis relative to control; type: ADME, cell-free; settings: read-out: Stability
THP-1 [10] = experiment: Inhibition of SNX9- p47phox protein-protein interaction in human THP-1 at 10 uM preincubated for 1 hrs followed by LPS stimulation for 30 mins; type: cell-based
BMDM [11] = experiment: Inhibition of SNX9- p47phox protein-protein interaction in mouse BMDM at 10 uM preincubated for 1 hrs followed by LPS stimulation for 30 mins; type: cell-based; settings: time 1.5 hrs
THP-1 [12] = experiment: Inhibition of SNX9- p47phox protein-protein interaction in LPS-induced early endosome of human THP-1cells at 10 uM preincubated for 1 hrs followed by LPS stimulation for 30 mins; type: cell-based
BMDM [13] = experiment: Inhibition of SNX9- p47phox protein-protein interaction in LPS-induced early endosome of mouse BMDM cells at 10 uM preincubated for 1 hrs followed by LPS stimulation for 30 mins; type: cell-based
THP-1 [14] = experiment: Antiinflammatory activity in LPS-induced human THP-1 cells assessed as reduction in TNF-alpha production preincubated for 1 hr followed by LPS stimulation and measured after 30 mins by ELISA; type: functional, cell-based; settings: dose 1-10000 nM
BMDM [15] = experiment: Antiinflammatory activity in LPS-induced […] cells assessed as reduction in TNF-alpha production preincubated for 1 hr followed by LPS stimulation and measured after 30 mins by ELISA; type: functional, cell-based; settings: dose 1-10000 nM
THP-1 [16] = experiment: Effect on SNX9 expression in human THP-1 cells at 1 to 5000 nM measured after 24 to 48 hrs; type: functional, cell-based; settings: dose 1-5000 nM, time 24-48 hrs
BMDM [17] = experiment: Effect on SNX9 expression in mouse BMDM cells at 1 to 5000 nM measured after 24 to 48 hrs; type: functional, cell-based; settings: dose 1-5000 nM, time 24-48 hrs
Mus musculus [18] = experiment: Protection against CLP-induced ip dosed systemic sepsis SNX9+/+ mouse model; type: functional, organism-based; settings: dose 1.0 µg/kg
Mus musculus [19] = experiment: Protection against CLP-induced systemic sepsis SNX9+/+ mouse model assessed as mortality at 100 to 1000 microg/kg, ip; type: functional; settings: dose 100-1000 µg/kg; at 100 to 1000 µg/kg
Mus musculus [20] = experiment: Protection against CLP-induced systemic sepsis SNX9-/- mouse model assessed as effect on mouse survival at 100 to 1000 microg/kg, ip; type: functional, organism-based; settings: dose 100-1000 µg/kg
Mus musculus [21] = experiment: Protection against CLP-induced systemic sepsis SNX9+/+ mouse model assessed as reduction in serum TNF-alpha at 10 microg/kg, ip; type: functional, organism-based; settings: dose 10.0 µg/kg
Mus musculus [22] = experiment: Protection against CLP-induced systemic sepsis SNX9+/+ mouse model assessed as reduction in serum IL-6 at 10 microg/kg, ip; type: functional, organism-based; settings: dose 10.0 µg/kg
Mus musculus [23] = experiment: Protection against CLP-induced systemic sepsis SNX9+/+ mouse model assessed as reduction in serum IL-1beta at 10 microg/kg, ip; type: functional, organism-based; settings: dose 10.0 µg/kg
Mus musculus [24] = experiment: Protection against CLP-induced systemic sepsis SNX9+/+ mouse model assessed as reduction in serum IL-18 at 10 microg/kg, ip; type: functional, organism-based; settings: dose 10.0 µg/kg
Mus musculus [25] = experiment: Protection against CLP-induced systemic sepsis SNX9+/+ mouse model assessed as reduction in serum IL-12p40 at 10 microg/kg, ip; type: functional, organism-based; settings: dose 10.0 µg/kg
Mus musculus [26] = experiment: Protection against CLP-induced systemic sepsis SNX9+/+ mouse model assessed as reduction in serum IL-10 at 10 microg/kg, ip; type: functional, organism-based; settings: dose 10.0 µg/kg
Mus musculus [27] = experiment: Protection against CLP-induced systemic sepsis SNX9+/+ mouse model assessed as reduction in infiltration of immune cells at 10 microg/kg, ip by H & E staining based analysis; type: functional, organism-based; settings: dose 10.0 µg/kg
Mus musculus [28] = experiment: Protection against CLP-induced systemic sepsis SNX9+/+ mouse model assessed as reduction in lung damage at 10 microg/kg, ip by H and E staining based analysis; type: functional, organism-based; settings: dose 10.0 µg/kg
Mus musculus [29] = experiment: Protection against CLP-induced systemic sepsis SNX9+/+ mouse model assessed as reduction in liver damage at 10 microg/kg, ip by H and E staining based analysis; type: functional, organism-based; settings: dose 10.0 µg/kg
Mus musculus [30] = experiment: Protection against CLP-induced systemic sepsis SNX9+/+ mouse model assessed as reduction in spleen damage at 10 microg/kg, ip by H and E staining based analysis; type: functional, organism-based; settings: dose 10.0 µg/kg
Mus musculus [31] = experiment: In vivo inhibition of SNX9-p47phox protein-protein interaction in CLP-induced systemic sepsis mouse model at 10 microg/kg, ip; type: functional, organism-based; settings: dose 10.0 µg/kg
Mus musculus [32] = experiment: In vivo inhibition of SNX9-p47phox protein-protein interaction in CLP-induced systemic sepsis mouse model assessed as reduction ROS in splenocytes at 10 microg/kg, ip; type: functional, organism-based; settings: dose 10.0 µg/kg
[33] = Drug uptake in CLP-induced systemic sepsis mouse model in lung macrophages at 10 microg/kg, ip; type: ADME, tissue-based; settings: in vivo, 0.01 mg/kg, dose 10 µg/kg
[34] = Drug uptake in CLP-induced systemic sepsis mouse model in liver macrophages at 10 microg/kg, ip; type: ADME, tissue-based; settings: in vivo, 0.01 mg/kg, dose 10 µg/kg

`CC(C)(C)c1ccc(-c2nc(NCCOCCOCCN)nc(Nc3ccc(Cl)cc3)n2)cc1` gave an inhibition at 10 µM [1] of 33.7%, an inhibition at 10 µM [2] of 34.2% and an inhibition at 10 µM [3] of 32.5%.

With `CC(C)(C)c1ccc(-c2nc(NCCOCCOCCN)nc(NCC3CCCO3)n2)cc1.Cl` (stereo not given) the inhibition at 10 µM [1] was 60.8%, the inhibition at 10 µM [2] was 57% and the inhibition at 10 µM [3] was 66.7%. It also gave an MIC80 (Escherichia coli) of 1.98 µg/mL, an MIC80 (Staphylococcus aureus) of 4 µg/mL and an MIC80 (Pseudomonas aeruginosa) of 1.98 µg/mL. It also gave a Tmax [4] of 10.2 min, a Cmax [5] of 136 ng/mL and an AUC(0-t) at 6 h [6] of 209 ng·h/mL. The half-life [7] was 63.6 min, the remaining at 0.5 h, 10 µM [8] was greater than 100% and the remaining at 2 h, 10 µM [9] was 93%. For the same compound, the inhibition (THP-1 [10]) was “Active”, the inhibition (BMDM [11]) was “Active” and the inhibition (THP-1 [12]) was “Active”. For the same compound, the inhibition (BMDM [13]) was “Active”, the Activity (THP-1 [14]) was “Dose-Dependent Effect” and the Activity (BMDM [15]) was “Dose-Dependent Effect”. The Activity (THP-1 [16]) was “inactive”, the Activity (BMDM [17]) was “inactive” and the Activity (Mus musculus [18]) was “Dose-Dependent Effect”. For the same compound, the Activity (Mus musculus [19]) was 70%, the Activity (Mus musculus [20]) was “inactive” and the Activity (Mus musculus [21]) was “Active”. The Activity (Mus musculus [22]) was “Active”, the Activity (Mus musculus [23]) was “Active” and the Activity (Mus musculus [24]) was “Active”. For the same compound, the Activity (Mus musculus [25]) was “Active”, the Activity (Mus musculus [26]) was “Active” and the Activity (Mus musculus [27]) was “Active”. For the same compound, the Activity (Mus musculus [28]) was “Active”, the Activity (Mus musculus [29]) was “Active” and the Activity (Mus musculus [30]) was “Active”. The inhibition (Mus musculus [31]) was “Active”, the inhibition (Mus musculus [32]) was “Active” and the Drug uptake [33] was “Active”. For the same compound, the Drug uptake [34] was “Active”.

In the case of `CC1(C)S[C@@H]2[C@H](NC(=O)[C@H](N)c3ccccc3)C(=O)N2[C@H]1C(=O)O` [AMPICILLIN], the MIC80 (Escherichia coli) is reported as 1.98 µg/mL (≈ 5.67 µM), the MIC80 (Staphylococcus aureus) is reported as 0.25 µg/mL (≈ 0.715 µM) and the MIC80 (Pseudomonas aeruginosa) is reported as 0.99 µg/mL (≈ 2.83 µM).

Compound `CC(C)(C)c1ccc(-c2nc(NCCOCCOCCN)nc(NCc3cccc(F)c3)n2)cc1` has an inhibition at 10 µM [1] of 35.6%, an inhibition at 10 µM [2] of 38.5% and an inhibition at 10 µM [3] of 46.7%.

`CC(C)(C)c1ccc(-c2nc(NCCOCCOCCN)nc(NCC3CCCCC3)n2)cc1` showed an inhibition at 10 µM [1] of 36.4%, an inhibition at 10 µM [2] of 21.5% and an inhibition at 10 µM [3] of 24.7%.

For `CC(C)(C)c1ccc(Nc2nc(NCCOCCOCCN)nc(-c3ccc(C(C)(C)C)cc3)n2)cc1`, the inhibition at 10 µM [1] was 23.2%, the inhibition at 10 µM [2] was 29.2% and the inhibition at 10 µM [3] was 32.8%.

With `CC(C)(C)c1ccc(-c2nc(NCCCOCCOCCCN)nc(NCC3CCCO3)n2)cc1` (stereo not given) the inhibition at 10 µM [1] was 13.8%, the inhibition at 10 µM [2] was 19.1% and the inhibition at 10 µM [3] was 22.3%.
